From patent US20250108119A1, “NOVEL STEROID PAYLOADS, STEROID LINKERS, ADCs CONTAINING AND USE THEREOF” (IMMUNEXT, INC., priority 2021, published 2025) come the findings set out here.

SMILES strings stand for the structures. “Also recorded” adds a separate entry of the source.

The subject of assay [1] is human PBMC. As to the kind of experiment: Cytokine production (IL-1β, IL-6) at 24 hr by human PBMC incubated with 1 ng/mL LPS. As to conditions: free steroid payloads, serial dilutions, 1 ng/mL LPS, 24 hr. Format: cell-based. On the procedure:
FIG. 51: INX-SM-3, INX-SM-4, and INX-SM-1 inhibit IL-1β (left) and IL-6 (right) production. Cytokine levels were measured at 24 hr for human PBMCS incubated with 1 ng/mL LPS and serial dilutions (1000-1 nM) of steroid payloads, with the no treatment control plotted on the log-scale x-axis at <1 nM; n=1 donor, standard deviation plotted from technical duplicates.
FIG. 52: INX-SM-1, INX-SM-3, INX-SM-4 and INX-SM-6 inhibit IL-1β production. Cytokine levels measured at 24 hr for human PBMCS incubated with 1 ng/ml LPS and serial dilutions (1000-1 nM) of steroid payloads, with the no treatment control plotted on the log-scale x-axis at <1 nM; n=1 donor, standard deviation plotted from technical duplicates.
FIG. 53: INX-SM-9, INX-SM-31 and INX-SM-35 inhibit IL-1β (top) and IL-6 (bottom) production. Cytokine levels measured at 24 hr for human PBMCS incubated with 1 ng/mL LPS and serial dilutions (1000-0.2 nM) of steroid payloads, with the no treatment control plotted on the log-scale x-axis at <0.2 nM; n=2 donors-representative donor shown. Standard deviation plotted from technical duplicates.
FIG. 54: INX-SM-32 inhibits IL-1β (top) and IL-6 (bottom) production. Cytokine levels measured at 24 hr for human PBMCS incubated with 1 ng/mL LPS and serial dilutions (500-1 nM) of steroid payloads, with the no treatment control plotted on the log-scale x-axis at <1 nM; n=2. Representative donor shown. Standard deviation plotted from technical duplicates.
Cytokine levels measured at 24 hr for human PBMCS incubated with 1 ng/ml LPS and serial dilutions (1000-0.5 nM) of steroid payloads, with the no treatment control plotted on the log-scale x-axis at <0.5 nM; n=1 donor, standard deviation plotted from technical duplicates.
FIG. 56: INX-SM-2 and INX-SM-7 show inhibition in IL-1β. Average Cytokine levels measured at 24 hr for human PBMCS incubated with 1 ng/ml LPS and serial dilutions (1000-0.16 nM) of steroid payloads, with the no treatment control plotted on the log-scale x-axis at <0.16 nM; n=1, standard deviation plotted from technical duplicates. […]
Average cytokine levels measured at 24 hr for human PBMC incubated with 1 ng/ml LPS and serial dilutions (100-0.032 nM) of glucocorticoid payloads; n=1, mean of technical duplicates.
Average cytokine levels measured at 24 hr for human PBMC incubated with 1 ng/mL LPS and serial dilutions (1000-0.32 nM) of glucocorticoid payloads; n=1, mean of technical duplicates.
Cytokine levels measured at 24 hr for human PBMC incubated with 1 ng/mL LPS and serial dilutions (1000-0.5 nM) of steroid payloads, with the no treatment control plotted on the log-scale x-axis at <0.5 nM; n=1 donor, mean of technical duplicates plotted.
Average cytokine levels for A. hull-1β B. huIL-6 measured at 24 hr for human PBMC incubated with 1 ng/mL LPS and serial dilutions (1000-0.16 nM) of conjugated steroid linker payloads, with the no treatment control plotted on the log-scale x-axis at <0.16 nM; n=1, standard deviation plotted from technical duplicates. Values above the ULOQ (12,500 pg/mL for IL-1b and 150,000 pg/mL for IL-6) were plotted as the extrapolated value.
Average cytokine levels for IL-1β measured at 24 hr for human PBMC incubated with 1 ng/mL LPS and serial dilutions (1000-0.16 nM) of conjugated steroid linker payloads, with the no treatment control plotted on the log-scale x-axis at <0.16 nM; n=1, mean plotted of technical duplicates
Average cytokine levels for IL-1β measured at 24 hr for human PBMC incubated with 1 ng/mL LPS and serial dilutions (1000-0.16 nM) of conjugated steroid linker payloads, with the no treatment control plotted on the log-scale x-axis at <0.16 nM; n=1, mean plotted of technical duplicates.
FIG. 66: Analogs of INX V are potent relative to INX231J. […]

The subject of assay [2] is LPS stimulated human PBMCs. As to the kind of experiment: LPS stimulated human PBMC, IL-1β and IL-6 ELISA. Format: cell-based. As to conditions: for inhibition of IL-1β and IL-6: Experiment 12: free payloads 1000-0.15 nM; for inhibition of IL-1β and IL-6 production: Experiment 1: free payload 1000-1 nM, 1 ng/ml LPS. On the procedure:
The potency of novel steroids was assessed in a model of LPS stimulated human peripheral blood mononuclear cells (PBMCS). Stimulated PBMCs in this assay produce multiple pro-inflammatory cytokines1.
In all the following experiments, human PBMC, isolated from 1-2 healthy donors per study, were stimulated with LPS to induce cytokine production.
LPS was added either immediately after addition of free payload, or in the case of conjugates, four hours after addition of the conjugate.
Cells were plated in flat bottom 96 well plates at a final concentration of 150,000 cells/well, with technical duplicates for each condition.
Test agents were serially diluted in the assay media and added to a final concentration of 1,000 nM-1 nM or 0.2 nM depending on the assay or as a no treatment control.
LPS stimulation was added to a final concentration of 1 ng/ml.
Human IL-1β and IL-6 ELISA kits were used on supernatants according to vendor protocols. All graphs were prepared with GraphPad (Prism).

Where [3] appears, read: Experiment 8: free payload 1000-0.5 nM.
Where [4] appears, read: Experiment 2: free payload 1000-1 nM, 24 hr, n=1 donor.

With `C[C@]12C=CC(=O)C=C1CC[C@@H]1[C@@H]2[C@@H](O)C[C@@]2(C)[C@H]1C[C@H]1O[C@@H](c3ccc(OC4CC5(CC(N)C5)C4)cc3F)O[C@]12C(=O)CO` (stereo partly drawn) [INX-SM-44, (6aR,6bS,7S,8aS,8bS,10R,11aR,12aS,12bS)-10-(4-((6-aminospiro[3.3]heptan-2-yl)oxy)-2-fluorophenyl)-7-hydroxy-8b-(2-hydroxyacetyl)-6a,8a-dimethyl-1,2,6a,6b,7,8,8a,8b,11a,12,12a,12b-dodecahydro-4H-naphtho[2′,1′:4,5]indeno[1,2-d][1,3]dioxol-4-one], the “inhibition of IL-1β production” value in assay [1] is “moderate inhibition”. In assay [2] (Experiment 7: free payload, INX-SM-43 100-0.032 nM, INX-SM-44 1000-0.32 nM), the “inhibition of huIL1-β” value is “moderate inhibition of huIL1-β”.
On to `C[C@]12C=CC(=O)C=C1CC[C@@H]1[C@@H]2[C@@H](O)C[C@@]2(C)[C@H]1C[C@H]1O[C@@H](c3ccc(CC4COC5(CNC5)C4)cc3)O[C@]12C(=O)CO` (stereo partly drawn) [INX-SM-31, (6aR,6bS,7S,8aS,8bS,11aR,12aS,12bS)-10-(4-((5-oxa-2-azaspiro[3.4]octan-7-yl)methyl)phenyl)-7-hydroxy-8b-(2-hydroxyacetyl)-6a,8a-dimethyl-1,2,6a,6b,7,8,8a,8b,11a,12,12a,12b-dodecahydro-4H-naphtho[2′,1′:4,5]indeno[1,2-d][1,3]dioxol-4-one], for which the “inhibition of IL-1β production” value in assay [1] is given as “inhibit”; in assay [2] (Experiment 3: free payload 1000-0.2 nM, 24 hr, n=2 donors) it was “dose dependent inhibition in IL-1β production; also recorded: the least potent compound among these compounds tested”. Besides, in assay [1], the “inhibition of IL-6 production” value is “inhibit”. Besides, the “potency of free payloads (conclusions)” value in assay [2] is on record as “lowest potency among the R stereoisomers of the series”.
Consider `C[C@]12C=CC(=O)C=C1CC[C@@H]1[C@@H]2[C@@H](O)C[C@@]2(C)[C@H]1C[C@H]1O[C@@H](c3ccc(CC4CC(N)C45CCC5)cc3)O[C@]12C(=O)CO` (stereo partly drawn) [INX-SM-45, (6aR,6bS,7S,8aS,8bS,10R,11aR,12aS,12bS)-10-(4-((3-aminospiro[3.3]heptan-1-yl)methyl)phenyl)-7-hydroxy-8b-(2-hydroxyacetyl)-6a,8a-dimethyl-1,2,6a,6b,7,8,8a,8b,11a,12,12a,12b-dodecahydro-4H-naphtho[2′,1′:4,5]indeno[1,2-d][1,3]dioxol-4-one 2,2,2-trifluoroacetate], for which the “inhibition of IL-1β production” value in assay [1] is “more modest inhibition”; in assay [2] (setting [3]), “more modest inhibition of cytokine production”.
`C[C@]12C=CC(=O)C=C1CC[C@@H]1[C@@H]2[C@@H](O)C[C@@]2(C)[C@H]1C[C@H]1CN(c3ccc(CC45CC(N)(C4)C5)cc3)C[C@]12C(=O)CO` [INX-SM-34, (6aR,6bS,7S,8aS,8bS,11aR,12aS,12bS)-10-(4-((3-aminobicyclo[1.1.1]pentan-1-yl)methyl)phenyl)-7-hydroxy-8b-(2-hydroxyacetyl)-6a,8a-dimethyl-1,6a,6b,7,8,8a,8b,9,10,11,11a,12,12a,12b-tetradecahydronaphtho[2′,1′:4,5]indeno[1,2-c]pyrrol-4 (2H)-one 2,2,2-trifluoroacetate]: in assay [1], the “inhibition of IL-1β production” value is “weakly inhibit” and the “inhibition of IL-6 production” value was “weakly inhibit”. In assay [2], the “inhibition of IL-1β and IL-6” value was “weakly inhibit IL-1β and IL-6”.
In the case of `C[C@]12C=CC(=O)C=C1CC[C@@H]1[C@@H]2[C@@H](O)C[C@@]2(C)[C@H]1C[C@H]1O[C@@H](C34CC(Cc5cccc(N)c5)(C3)C4)O[C@]12C(=O)CO` [INX-SM-4, (6aR,6bS,7S,8aS,8bS,10R,11aR,12aS,12bS)-10-(3-(3-aminobenzyl)bicyclo[1.1.1]pentan-1-yl)-7-hydroxy-8b-(2-hydroxyacetyl)-6a,8a-dimethyl-1,2,6a,6b,7,8,8a,8b,11a,12,12a,12b-dodecahydro-4H-naphtho[2′,1′:4,5]indeno[1,2-d][1,3]dioxol-4-one], the “inhibition of IL-1β production” value in assay [1] is recorded as “inhibit”; in assay [2] (setting [4]), “show inhibition in IL-1β production”. Further, the “inhibition of IL-6 production” value in assay [1] was “inhibit”. For the same compound, in assay [2] (24 hr, n=1 donor), the “inhibition of IL-1β and IL-6 production” value is “inhibit both IL-1β and IL-6 production”.
Consider `C[C@]12C=CC(=O)C=C1CC[C@@H]1[C@@H]2[C@@H](O)C[C@@]2(C)[C@H]1C[C@H]1CN(Cc3ccc(CC45CC(N)(C4)C5)cc3)C[C@]12C(=O)CO` [INX-SM-17, (6aR,6bS,7S,8aS,8bS,11aR,12aS,12bS)-10-(4-((3-aminobicyclo[1.1.1]pentan-1-yl)methyl)benzyl)-7-hydroxy-8b-(2-hydroxyacetyl)-6a,8a-dimethyl-1,6a,6b,7,8,8a,8b,9,10,11,11a,12,12a,12b-tetradecahydronaphtho[2′,1′:4,5]indeno[1,2-c]pyrrol-4 (2H)-one 2,2,2-trifluoroacetate], for which the “inhibition of IL-1β production” value in assay [1] is given as “weakly inhibits”. Also, in assay [2], the “inhibition of IL-1β and IL-6” value was “only weakly inhibit IL-1β”.
For the compound `C[C@]12C=CC(=O)C=C1CC[C@@H]1[C@@H]2[C@@H](O)C[C@@]2(C)[C@H]1C[C@H]1O[C@@H](c3ccc(CC4CC45CCC(N)CC5)cc3)O[C@]12C(=O)CO` (stereo partly drawn) [INX-SM-46, (6aR,6bS,7S,8aS,8bS,10R,11aR,12aS,12bS)-10-(4-((6-aminospiro[2.5]octan-1-yl)methyl)phenyl)-7-hydroxy-8b-(2-hydroxyacetyl)-6a,8a-dimethyl-1,2,6a,6b,7,8,8a,8b,11a,12,12a,12b-dodecahydro-4H-naphtho[2′,1′:4,5]indeno[1,2-d][1,3]dioxol-4-one 2,2,2-trifluoroacetate], the “inhibition of IL-1β production” value is on record as “more modest inhibition” in assay [1] and “more modest inhibition of cytokine production” in assay [2] (setting [3]).
On to `C[C@]12C=CC(=O)C=C1CC[C@@H]1[C@@H]2[C@@H](O)C[C@@]2(C)[C@H]1C[C@H]1O[C@@H](c3ccc(Cc4cnc(N)s4)cc3)O[C@]12C(=O)CO` [INX-SM-1, (6aR,6bS,7S,8aS,8bS,10R,11aR,12aS,12bS)-10-(4-((2-aminothiazol-5-yl)methyl)phenyl)-7-hydroxy-8b-(2-hydroxyacetyl)-6a,8a-dimethyl-1,2,6a,6b,7,8,8a,8b,11a,12,12a,12b-dodecahydro-4H-naphtho[2′,1′:4,5]indeno[1,2-d][1,3]dioxol-4-one], for which, in assay [1], the “inhibition of IL-1β production” value was “inhibit” and the “inhibition of IL-6 production” value is “inhibit”. For the same compound, the “inhibition of IL-1β and IL-6 production” value in assay [2] (24 hr, n=1 donor) is “inhibit both IL-1β and IL-6 production”. In addition, the “inhibition of IL-1β production” value in assay [2] (setting [4]) was “show inhibition in IL-1β production”.
